Active and inactive are the calls of the source. The calls are words filed in the database; no cut-off is given here.
Columns and labels:
[1] = molecular target: T1, Angiotensin-converting enzyme (Homo sapiens, UniProt P12821); assay: Inhibition of ACE (unknown origin) at IC50 using Hippuryl-L-Histidyl-L-Leucine as substrate after 60 mins by colorimetric method relative to control
[2] = Antioxidant activity assessed as H2O2 free radical scavenging activity at IC50 after 1 hr by UV spectrophotometric analysis relative to control; assay type: functional
[3] = molecular target: T1, Angiotensin-converting enzyme; assay: Inhibition of ACE (unknown origin) using Hippuryl-L-Histidyl-L-Leucine as substrate after 60 mins by colorimetric method
[4] = Antioxidant activity assessed as H2O2 free radical scavenging activity after 1 hr by UV spectrophotometric analysis; assay type: functional
DNA = assay: Inhibition of H2O2-induced Escherichia coli DH5alpha genomic DNA damage at 25 to 250 uL after 24 hrs by ethidium-bromide staining-based agarose gel electrophoresis; assay type: nucleic-acid assay; settings: Escherichia coli DH5[alpha]
Blood [5] = assay: Thrombolytic activity in human blood after 60 mins; assay type: functional, tissue-based
Blood [6] = assay: Thrombolytic activity in human blood after 2 hrs relative to control; assay type: functional
Blood [7] = assay: Thrombolytic activity in human blood after 2 hrs; assay type: functional, tissue-based
Erythrocyte = assay: Induction of membrane stabilization in human RBC assessed as reduction in hemolysis relative to control; assay type: functional; design: scale not given: the % may be the effect or the level left
MCF7 [8] = assay: Cytotoxicity against human MCF7 cells after 24 to 72 hrs by MTT assay; assay type: functional, cell-based
MCF7 [9] = assay: Cytotoxicity against human MCF7 cells at IC50 after 24 to 72 hrs by MTT assay relative to control; assay type: functional
MCF10 = assay: Cytotoxicity against human MCF10 cells at 10 to 150 ug/ml after 24 to 72 hrs by MTT assay; assay type: cell-based

T1 sequence (P12821 whole entry): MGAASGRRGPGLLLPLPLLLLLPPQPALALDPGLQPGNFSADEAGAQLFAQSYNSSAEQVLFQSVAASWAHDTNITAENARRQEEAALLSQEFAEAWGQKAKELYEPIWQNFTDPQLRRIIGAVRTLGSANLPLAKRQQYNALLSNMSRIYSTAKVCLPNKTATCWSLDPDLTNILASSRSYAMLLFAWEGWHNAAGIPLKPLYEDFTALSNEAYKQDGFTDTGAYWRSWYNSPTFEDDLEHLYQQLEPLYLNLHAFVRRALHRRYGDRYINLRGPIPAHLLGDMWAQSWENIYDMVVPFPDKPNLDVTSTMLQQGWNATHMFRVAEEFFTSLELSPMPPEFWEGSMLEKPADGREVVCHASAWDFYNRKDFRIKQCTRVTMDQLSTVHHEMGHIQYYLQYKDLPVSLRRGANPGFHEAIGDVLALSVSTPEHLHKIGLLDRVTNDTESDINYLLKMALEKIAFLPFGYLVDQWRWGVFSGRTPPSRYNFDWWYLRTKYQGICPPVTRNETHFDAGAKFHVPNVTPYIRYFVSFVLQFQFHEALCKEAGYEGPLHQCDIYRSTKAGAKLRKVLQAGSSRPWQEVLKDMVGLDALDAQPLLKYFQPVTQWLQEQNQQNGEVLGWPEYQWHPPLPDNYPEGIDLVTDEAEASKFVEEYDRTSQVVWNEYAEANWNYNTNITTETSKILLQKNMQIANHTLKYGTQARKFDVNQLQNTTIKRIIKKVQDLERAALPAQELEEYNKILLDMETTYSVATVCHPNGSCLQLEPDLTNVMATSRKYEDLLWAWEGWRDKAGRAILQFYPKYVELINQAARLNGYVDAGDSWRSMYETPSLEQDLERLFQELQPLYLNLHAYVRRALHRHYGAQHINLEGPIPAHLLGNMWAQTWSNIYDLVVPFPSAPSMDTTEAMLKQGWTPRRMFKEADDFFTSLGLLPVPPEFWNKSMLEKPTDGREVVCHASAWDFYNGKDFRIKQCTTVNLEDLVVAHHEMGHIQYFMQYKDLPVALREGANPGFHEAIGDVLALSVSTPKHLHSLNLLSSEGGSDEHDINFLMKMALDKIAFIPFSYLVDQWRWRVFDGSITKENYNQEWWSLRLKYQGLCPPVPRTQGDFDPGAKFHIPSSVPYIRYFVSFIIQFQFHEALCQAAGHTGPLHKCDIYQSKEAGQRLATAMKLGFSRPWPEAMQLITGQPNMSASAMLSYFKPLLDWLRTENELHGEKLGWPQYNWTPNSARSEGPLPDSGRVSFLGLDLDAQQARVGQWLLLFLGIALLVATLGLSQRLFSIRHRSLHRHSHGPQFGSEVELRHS

SMILES	inhibition [1] [%]	Activity [2] [%]	IC50 [3] [nM]	Activity [4]	inhibition (DNA)	Activity (Blood [5])	Activity (Blood [6]) [%]	IC50 (Blood [7]) [nM]	Activity (Erythrocyte) [%]	IC50 (MCF7 [8]) [nM]	Activity (MCF7 [9]) [%]	Activity (MCF10)
NCCCC[C@H](N[C@@H](CCc1ccccc1)C(=O)O)C(=O)N1CCC[C@H]1C(=O)O	89.1											
O=C1O[C@H]([C@@H](O)CO)C(O)=C1O		90.1										
CC(=O)CN1C(=O)/C(=N\C(=S)NCc2cc3ccccc3cc2O)c2ccccc21	24	68.5	112	Dose-dependent effect								
O=C1/C(=N\C(=S)NCc2cc3ccccc3cc2O)c2ccccc2N1c1ccccc1	69.2	80.8	19	Dose-dependent effect								
O=C1/C(=N\C(=S)NCc2cc3ccccc3cc2O)c2ccccc2N1c1ccccc1Cl	76.5	82.7	15.1	Dose-dependent effect								
Cc1ccc(C(=O)N2C(=O)/C(=N\C(=S)NCc3cc4ccccc4cc3O)c3ccccc32)cc1	65	83.1	24.2	Dose-dependent effect								
CN1C(=O)/C(=N\C(=S)NCc2cc3ccccc3cc2O)c2ccccc21	66.5	74.1	22.3	Dose-dependent effect	inactive							
O=C(O)CN1C(=O)/C(=N\C(=S)NCc2cc3ccccc3cc2O)c2ccccc21	96.1	98.1	2.85	Dose-dependent effect	Active	Active	83.5	35	96	82	89.02	Non-Toxic
O=C1/C(=N\C(=S)NCc2cc3ccccc3cc2O)c2ccccc2N1CCBr	90.5	92.5	4.11	Dose-dependent effect	Active	Active	83.5			92	82.94	Non-Toxic
CCCN1C(=O)/C(=N\C(=S)NCc2cc3ccccc3cc2O)c2ccccc21	80.7	75.1	11.8	Dose-dependent effect								
COc1cccc2c1C(=O)c1c(O)c3c(c(O)c1C2=O)C[C@@](O)(C(=O)CO)C[C@@H]3O[C@H]1C[C@H](N)[C@H](O)[C@H](C)O1 [DOXORUBICIN]											78.42	
CC(=O)N1C(=O)/C(=N\C(=S)NCc2cc3ccccc3cc2O)c2ccccc21	82.7	81.2	10.7	Dose-dependent effect	Active							
O=C1/C(=N\C(=S)NCc2cc3ccccc3cc2O)c2ccccc2N1C(=O)c1ccccc1	87.3	89.5	8.84	Dose-dependent effect	Active		83.5			102	78.12	Non-Toxic
COc1ccc(CN2C(=O)/C(=N\C(=S)NCc3cc4ccccc4cc3O)c3ccccc32)cc1	88.5	78	7.64	Dose-dependent effect	Active		83.5					
COc1ccc(N2C(=O)/C(=N/C(=S)NCc3cc4ccccc4cc3O)c3ccccc32)cc1	86.4	79.4	9.82	Dose-dependent effect								

Reference: ChEMBL document CHEMBL4130507, “Therapeutic investigations of novel indoxyl-based indolines: A drug target validation and Structure-Activity Relationship of angiotensin-converting enzyme inhibitors with cardiovascular regulation and thrombolytic potential” (Eur J Med Chem, 2017)
